In assay [1] the target is T1, Mushroom tyrosinase (Agaricus bisporus, UniProt C7FF04).
T1 construct: purchased Sigma-Aldrich
In words: Diphenolase inhibitory activity of tyrosinase (ʟ-DOPA as substrate) and Lineweaver–Burk mode of inhibition. Format: biochemical. The conditions noted are these: diphenolase reaction; for Mode of Inhibition: Lineweaver–Burk plot, [S] 0.125 to 0.5 mM, different peptide concentrations. The protocol: (§1) The monophenolase and diphenolase inhibitory activities of tyrosinase were determined by using ʟ-tyrosine and ʟ-DOPA as substrates, respectively, as previously described. Various concentrations of peptides were tested to determine the IC50 values, i.e., the concentration of peptides required to inhibit half of the tyrosinase activities. The activities of monophenolase and diphenolase reactions were determined through the measurement of the rate of formation of dopachrome in the presence of substrate concentrations, [S] ranging from 0.125 to 0.5 mM. The initial velocity, V of the reaction was determined using the Beer–Lambert law:(1) ΔA=ε l Δc (2) V=ΔC/t=ΔA/ε l t where ΔC/t denotes the rate of change of the solution concentration; ΔA/t denotes the rate of change of absorbance i.e., slope of the reaction; ε denotes the molar extinction coefficient of dopachrome (3700 M^−1 cm^−1) and l denotes the pathlength.
Target sequence in this assay (C7FF04 1-392 limits assumed): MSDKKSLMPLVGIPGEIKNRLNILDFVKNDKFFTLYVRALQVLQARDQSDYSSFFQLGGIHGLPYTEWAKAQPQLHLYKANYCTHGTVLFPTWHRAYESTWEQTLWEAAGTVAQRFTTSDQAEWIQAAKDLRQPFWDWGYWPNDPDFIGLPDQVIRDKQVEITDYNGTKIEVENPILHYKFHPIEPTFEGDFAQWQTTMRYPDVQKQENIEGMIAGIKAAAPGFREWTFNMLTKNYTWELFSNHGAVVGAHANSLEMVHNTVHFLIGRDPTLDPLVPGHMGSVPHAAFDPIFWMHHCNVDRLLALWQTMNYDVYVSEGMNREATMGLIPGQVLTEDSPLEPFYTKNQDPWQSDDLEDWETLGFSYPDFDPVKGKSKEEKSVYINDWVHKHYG

The nature of assay [2]: Copper chelating activity (pyrocatechol violet). Particulars: peptide 10 mg/mL, 50 mM sodium acetate buffer pH 6.0, absorbance 632 nm, mean ± standard deviation (n = 3), SD. The protocol: The copper chelating activity was determined according to Kubglomsong et al.. Briefly, 4 mM of chromogenic reagent, i.e., pyrocatechol violet was prepared in 50 mM sodium acetate buffer (pH 6.0). Then, 10 µL of peptide sample (10 mg/mL), 280 µL sodium acetate buffer, 10 µL CuSO4∙5H2O and lastly 6 µL pyrocatechol violet were added to a 96-well plate. The sample solution was mixed well and the absorbance was measured at 632 nm using a spectrophotometer (Spectramax M5, Molecular Devices, San Jose, CA, USA). Ethylenediaminetetraacetic acid (EDTA) was used as the positive control. The copper chelating activity is calculated as follows:(3) Copper chelating activity %=Acontrol−Asample/Acontrol×100 where Acontrol denotes the absorbance of the system containing sodium acetate buffer, pyrocatechol violet and CuSO4∙5H2O whereas Asample denotes the absorbance of the system containing peptide, sodium acetate buffer, pyrocatechol violet and CuSO4∙5H2O.

The nature of assay [3]: Ferric reducing antioxidant power (FRAP) assay. Particulars: peptide 10 mg/mL; 37 °C for 1 h; absorbance 593 nm; mean ± standard deviation (n = 3); SD. The protocol: The reducing potential of peptides was measured according to Benzie and Strain [20]. ferric reducing antioxidant power (FRAP) reagent containing 300 mM acetate buffer (pH 3.6), 10 mM TPTZ prepared in 40 mM HCl and 20 mM FeCl3⸱6H2O in the ratio of 10:1:1 was incubated at 37 °C for 30 min. Then, 200 µL of FRAP reagent was added to 2.7 µL peptide sample (10 mg/mL) in a 96-well plate and mixed well before incubating at 37 °C for 1 h. The absorbance of the sample was then measured spectrophotometrically at 593 nm. Freshly prepared FRAP reagent was used for each run. A standard curve was prepared using FeSO4⸱7H2O at 0–3 mM. The peptide FRAP was expressed in mM FeSO4. Gallic acid was used as the positive control.

Assay [4] is described as follows: ABTS free radical scavenging assay. The conditions noted are these: peptide 10 mg/mL; dark, room temperature, 6 min; absorbance 734 nm; mean ± standard deviation (n = 3); SD. The protocol: The free radical scavenging potential of peptides was measured according to Cai, Luo, Sun and Corke. Briefly, ABTS reagent containing 7 mM ABTS and 2.45 mM ammonium persulfate were incubated in the dark at room temperature for 12–16 h. The reagent was diluted using 80% ethanol to an absorbance of 0.700 ± 0.005 at 734 nm. Then, 195 µL of the diluted ABTS reagent was added to 5 µL of peptide sample (10 mg/mL) and incubated in the dark at room temperature for 6 min. The absorbance of the sample at 734 nm was monitored immediately using a spectrophotometer. Gallic acid was used as the positive control. The ABTS free radical scavenging activity is calculated as follows:(5) ABTS free radical scavenging activity %=Acontrol−Asample/Acontrol×100 where Acontrol denotes the absorbance of the system containing ABTS and water whereas Asample denotes the absorbance of the system containing ABTS and peptide sample.

A short description of assay [5]: DPPH free radical scavenging assay. The conditions noted are these: peptide 10 mg/mL; 0.1 mM DPPH in ethanol, 30 °C for 30 min; absorbance 517 nm; mean ± standard deviation (n = 3); SD. The protocol:
The free radical scavenging potential of peptides was measured according to Blois. Briefly, 0.1 mM DPPH stock solution was prepared in ethanol. In a dark setting, 500 µL of DPPH was added to 16.65 µL peptide sample (10 mg/mL) and incubated at 30 °C for 30 min. The absorbance of the mixture was then monitored at 517 nm using a spectrophotometer. Gallic acid was used as the positive control. The DPPH free radical scavenging activity is calculated as follows:(6) DPPH free radical scavenging activity %=Acontrol−Asample/Acontrol×100 where Acontrol denotes the absorbance of the system containing DPPH and ethanol whereas Asample denotes the absorbance of the system containing DPPH and peptide sample.
A general note: Loss of DPPH colour is used to gauge radical scavenging.

In assay [6] the target is tyrosinase. Set-up: method as in 2 sources, ref 25 = [25]; PMID 10441774; doi:10.1002/(SICI)1099-1573(199908/09)13:5<371::AID-PTR453>3.0.CO;2-L; 25. Lim J.Y. Ishiguro K. Kubo I. Tyrosinase inhibitory p-Coumaric acid from Ginseng leaves Phytother. Res. 1999 13 371 375 10.1002/(SICI)1099-1573(199908/09)13:5<371::AID-PTR453>3.0.CO;2-L 10441774 ||| ref 26 = [26]; PMID 3141207; doi:10.1007/BF01941189; 26. Maddaluno J.F. Faull K.F. Inhibition of mushroom tyrosinase by 3-amino-L-tyrosines: Molecular probing of the active site of the enzyme Experientia 1988 44 885 887 10.1007/BF01941189 3141207. The conditions noted are these: read-out: IC50 (tyrosinase mixed-type inhibitor); cited from earlier work.

Assay [7] addresses T1, Mushroom tyrosinase. Description: Monophenolase inhibitory activity of tyrosinase (ʟ-tyrosine as substrate) and Lineweaver–Burk mode of inhibition. Format: biochemical. Particulars: monophenolase reaction; for Tyrosinase Activity Inhibition (%): substrate ʟ-tyrosine, peptide concentration 10 mg/mL, mean ± standard deviation (n = 3), SD; for Mode of Inhibition: Lineweaver–Burk plot, [S] 0.125 to 0.5 mM, different peptide concentrations. The protocol:
as §1
Target sequence in this assay (C7FF04 1-392): as the sequence (C7FF04 1-392 limits assumed) above

Assay [8] is described as follows: Sun protection factor (SPF) by UV spectrophotometry, Mansur equation. It is filed as physicochemical. Particulars: peptide 10 mg/mL, UVB 290–320 nm absorbance, CF 10, mean ± standard deviation (n = 3), SD. The protocol: The ability of peptides to absorb light in the UVB region (290–320 nm) was measured according to the methods described by Dutra, Kedor-Hackmann and Santoro [18]. The UV–Vis spectrophotometer was set to scan the peptide samples from 220 to 400 nm with a 5 nm increment. The SPF values of the peptide samples (10 mg/mL) were calculated using the Mansur equation:(4) SPF=CF×∑290320EEλ×Iλ×Absλ where CF denotes correction factor of 10 (for the short pathlength used); EE denotes erythemal effect spectrum; I denotes solar intensity spectrum and Abs denotes the absorbance of sample.

Where [9] appears, read: substrate ʟ-DOPA, peptide concentration 10 mg/mL, mean ± standard deviation (n = 3), SD.

“Also recorded” adds a separate entry of the source. Marks after values point to notes of the source that are not given here. Residues, ends and D or L forms follow the SMILES beside them.

The term IC50 denotes the concentration at which inhibition is half-maximal. The inhibition is the change of the read-out against control, counted positive when it falls. Higher therefore signals strong suppression. `CC(C)C[C@H](NC(=O)[C@H](CO)NC(=O)[C@H](Cc1ccc(O)cc1)NC(=O)CN)C(=O)NCC(=O)N[C@@H](CC(N)=O)C(=O)N[C@@H](Cc1c[nH]c2ccccc12)C(=O)N[C@H](C(=O)N[C@@H](CS)C(=O)N[C@@H](C)C(=O)N[C@@H](C)C(=O)N[C@@H](CCCCN)C(=O)O)C(C)C` [DIP1] (H-GYSLGNWVCAAK-OH) came in with an IC50 in assay [1] (substrate ʟ-DOPA, mean ± standard deviation, SD) of 3.04 ± 0.39 mM. Besides, in assay [1] (setting [9]), the inhibition at 10000 µg/mL is 80 ± 2.79%.
As to `O=C(O)CN(CCN(CC(=O)O)CC(=O)O)CC(=O)O` [EDTA, Ethylenediaminetetraacetic acid, reference compound], the “Copper Chelating Activity (%)” value in assay [2] was 96.06 ± 0.03^e %.
Regarding `O=C(O)c1cc(O)c(O)c(O)c1` [Gallic acid, reference compound], the “Antioxidant Activity FRAP (mM FeSO4)” value in assay [3] is recorded as 16.6 ± 0.36 ^c mM FeSO4. In assay [4], the “Antioxidant Activity ABTS (%) free radical scavenging” value is 83.14 ± 3.02 ^d %. In assay [5], the “Antioxidant Activity DPPH (%) free radical scavenging” value is 81.67 ± 0.03 ^b %.
On to `O=C(O)/C=C/c1ccc(O)cc1` [p-coumaric acid], for which, in assay [6], the IC50 is less than 0.36 mM.
As for ADHPF [MIP1], in assay [7], the “Tyrosinase Activity Inhibition (%)” value is 35.86 ± 2.26 ^d % and the “Mode of Inhibition” value is listed as “competitive inhibitors”. Besides, the “Copper Chelating Activity (%)” value in assay [2] is given as 94.33 ± 0.04 ^e %. Besides, the SPF in assay [8] was 1.80 ± 0.02 ^b. The “Antioxidant Activity FRAP (mM FeSO4)” value in assay [3] is recorded as 0.035 ± 0.004 ^a mM FeSO4. Moreover, in assay [4], the “Antioxidant Activity ABTS (%) free radical scavenging” value was 2.90 ± 0.28 ^b %.
With FDKLPGFGD [MIP3], in assay [7], the “Tyrosinase Activity Inhibition (%)” value is 22.78 ± 1.12 ^b % and the “Mode of Inhibition” value is “mixed-type inhibitor”. The “Copper Chelating Activity (%)” value in assay [2] is recorded as 94.43 ± 0.46 ^e %. Moreover, in assay [8], the SPF was 1.36 ± 0.02 ^a. In assay [3], the “Antioxidant Activity FRAP (mM FeSO4)” value is 0.034 ± 0.002 ^a mM FeSO4. For the same compound, the “Antioxidant Activity ABTS (%) free radical scavenging” value in assay [4] is reported as 2.11%.
In the case of FMMFESQNKDLLFK [DIP3], the “Tyrosinase Activity Inhibition (%)” value in assay [1] (setting [9]) is reported as 28.95 ± 1.47 ^c %. In assay [1], the “Mode of Inhibition” value is reported as “uncompetitive inhibitor”. Besides, in assay [2], the “Copper Chelating Activity (%)” value was 26.23 ± 1.03 ^c %. Further, the SPF in assay [8] is reported as 1.98 ± 0.05 ^b. Besides, the “Antioxidant Activity ABTS (%) free radical scavenging” value in assay [4] is 0.99%.
Turning to HIATNAVLFFGR [DIP2], the “Tyrosinase Activity Inhibition (%)” value in assay [1] (setting [9]) was 17.70 ± 2.66 ^a %. For the same compound, the “Mode of Inhibition” value in assay [1] is on record as “weaker competitive inhibitor; also recorded: competitive inhibitors”. For the same compound, the “Copper Chelating Activity (%)” value in assay [2] is reported as 19.13 ± 2.22 ^b %. Further, the SPF in assay [8] is recorded as 6.45 ± 0.40 ^d. Moreover, the “Antioxidant Activity FRAP (mM FeSO4)” value in assay [3] is 0.018 ± 0.001 ^a mM FeSO4.
ILELPFASGDLLML [MIP2]: in assay [7], the “Tyrosinase Activity Inhibition (%)” value was 17.26 ± 2.10 ^a % and the “Mode of Inhibition” value was “weaker competitive inhibitor; also recorded: competitive inhibitors”. In assay [2], the “Copper Chelating Activity (%)” value is 11.41 ± 0.13 ^a %. Further, the SPF in assay [8] is 3.12 ± 0.13 ^c. Also, the “Antioxidant Activity ABTS (%) free radical scavenging” value in assay [4] was found to be 1.44%.

The values are drawn from publication PMC8004729, “Multifunctional Tyrosinase Inhibitor Peptides with Copper Chelating, UV-Absorption and Antioxidant Activities: Kinetic and Docking Studies” (Foods, 2021).
